Source: PMC9960487, “A novel Menin-MLL1 inhibitor, DS-1594a, prevents the progression of acute leukemia with rearranged MLL1 or mutated NPM1” (Cancer Cell International, 2023)

Target: T1, hERG channel (Homo sapiens, UniProt Q12809)
T1 construct: gene KCNH2
Experiment: inhibition of hERG channel current (data not shown)
Type: cell-based

T1 sequence (Q12809 whole entry): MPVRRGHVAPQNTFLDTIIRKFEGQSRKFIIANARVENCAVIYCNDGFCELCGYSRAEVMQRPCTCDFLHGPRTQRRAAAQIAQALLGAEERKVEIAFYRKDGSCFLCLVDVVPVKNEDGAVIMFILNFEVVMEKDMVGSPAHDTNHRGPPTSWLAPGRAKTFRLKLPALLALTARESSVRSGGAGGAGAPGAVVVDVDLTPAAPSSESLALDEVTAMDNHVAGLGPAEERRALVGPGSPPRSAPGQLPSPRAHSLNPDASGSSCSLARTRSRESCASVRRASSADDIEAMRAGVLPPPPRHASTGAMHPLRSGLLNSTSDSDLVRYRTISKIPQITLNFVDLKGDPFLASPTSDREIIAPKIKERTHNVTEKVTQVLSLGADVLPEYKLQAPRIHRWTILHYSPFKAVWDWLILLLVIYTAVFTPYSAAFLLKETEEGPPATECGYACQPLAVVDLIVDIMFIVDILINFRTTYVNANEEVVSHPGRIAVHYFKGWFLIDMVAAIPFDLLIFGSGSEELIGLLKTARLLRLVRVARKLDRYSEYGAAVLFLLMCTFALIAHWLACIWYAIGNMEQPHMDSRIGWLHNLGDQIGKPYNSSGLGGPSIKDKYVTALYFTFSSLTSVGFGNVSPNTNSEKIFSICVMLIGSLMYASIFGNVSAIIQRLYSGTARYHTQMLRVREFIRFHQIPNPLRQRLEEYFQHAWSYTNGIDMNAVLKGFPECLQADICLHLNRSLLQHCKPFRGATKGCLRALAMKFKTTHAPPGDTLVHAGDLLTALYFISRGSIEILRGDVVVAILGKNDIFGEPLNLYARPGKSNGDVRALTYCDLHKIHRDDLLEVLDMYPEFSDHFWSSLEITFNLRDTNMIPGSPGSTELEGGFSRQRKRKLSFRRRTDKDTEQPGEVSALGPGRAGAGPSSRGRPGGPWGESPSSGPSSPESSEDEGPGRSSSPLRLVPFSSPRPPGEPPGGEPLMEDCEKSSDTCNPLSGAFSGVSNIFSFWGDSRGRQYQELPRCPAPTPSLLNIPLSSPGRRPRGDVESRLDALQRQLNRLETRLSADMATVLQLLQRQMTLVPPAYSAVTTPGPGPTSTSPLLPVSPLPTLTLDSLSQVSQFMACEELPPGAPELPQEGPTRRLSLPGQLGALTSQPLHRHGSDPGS

With COc1cc(-c2ccc(CN[C@H]3C[C@@H](O)[C@@H](N(C)c4ncnc5sc(CC(F)(F)F)cc45)C3)cc2)nnc1OC [DS-1594a, (1R, 2S, 4R)-4-({[4-(5,6-dimethoxypyridazin-3-yl)phenyl]methyl}amino)-2-{methyl[6-(2,2,2-trifluoroethyl)thieno[2,3-d]pyrimidin-4-yl]amino}cyclopentan-1-ol] the IC50 was 300 nM.
